Experimental data published in US11414384B2, “P300/CBP hat inhibitors” (Constellation Pharmaceuticals, Inc., priority 2018, dated 2022).

Target: p300 HAT domain (residues 1287-1666) (Homo sapiens (Human), UniProt Q09472)
Assay: p300 HAT SPA assay (scintillation proximity assay, acetylation of biotinylated H3(1-21) peptide)
Format: biochemical
Settings: P300 HAT SPA IC50, p300 HAT domain; average of at least 2 replicate titrations
Outline: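 Purified p300 HAT domain reaction transferred to streptavidin plates to capture biotinylated H3(1-21) peptide, incubated 1.5 hr at RT, and read by scintillation proximity. IC50 values derived from concentration-response data.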

Chain of p300 HAT domain (residues 1287-1666) (Q09472 1287-1666): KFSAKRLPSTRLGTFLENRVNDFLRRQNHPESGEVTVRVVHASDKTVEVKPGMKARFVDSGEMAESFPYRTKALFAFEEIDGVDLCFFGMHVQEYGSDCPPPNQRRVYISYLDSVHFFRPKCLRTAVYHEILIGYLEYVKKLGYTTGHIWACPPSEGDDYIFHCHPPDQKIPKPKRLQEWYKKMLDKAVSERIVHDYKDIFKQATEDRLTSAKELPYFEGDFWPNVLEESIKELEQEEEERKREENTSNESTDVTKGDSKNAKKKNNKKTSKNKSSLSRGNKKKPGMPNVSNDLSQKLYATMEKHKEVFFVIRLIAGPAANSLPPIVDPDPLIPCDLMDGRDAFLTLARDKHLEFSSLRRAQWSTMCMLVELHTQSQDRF

SMILES	IC50
CCn1cc(C(=O)C(NCCc2ccc(Cl)cc2)c2ccccc2)c2ccccc21 (single isomer, unassigned) [129 Isomer 2]	1810 nM

Same assay, conditions: p300 HAT domain; average of at least 2 replicate titrations; read-out: P300 HAT SPA IC50

IC50	SMILES
838 nM	Cn1cnc(-c2ccc3c(C(=O)[C@@H](NCCc4ccc(C(N)=O)cc4)c4ccccc4)c[nH]c3c2)c1 (single isomer, unassigned) [177 Isomer 2]
39 nM	N#Cc1ccc(CCNC(C(=O)c2c[nH]c3cc(C(=O)NC4COC4)ccc23)c2ccccc2)cc1 (single isomer, unassigned) [174 Isomer 2]
44 nM	CN1CCN(c2ccc3c(C(=O)C(NCCc4ccc(C#N)cc4)c4ccccc4)c[nH]c3c2)CC1 (single isomer, unassigned) [122 Isomer 2]
> 30000 nM	CNC(=O)c1ccc(CCN[C@H](C(=O)c2c[nH]c3cc(-c4cnn(C)c4)ccc23)c2ccccc2)cc1 (single isomer, unassigned) [131 Isomer 1]
388 nM	Cn1cc(-c2ccc3c(C(=O)C(NCCc4ccc(Cl)cc4)c4ccccc4)c[nH]c3c2)nn1 (single isomer, unassigned) [104 Isomer 2]
> 60000 nM	O=C(c1c[nH]c2ccccc12)C(NCCc1cn[nH]c1)c1ccccc1 (single isomer, unassigned) [34 Isomer 1]
> 30000 nM	CC(=O)N1CCC(c2ccc3c(C(=O)C(NCCc4ccc(Cl)cc4)c4ccccc4)c[nH]c3c2)CC1 (single isomer, unassigned) [65 Isomer 1]
> 60000 nM	O=C(c1c[nH]c2ccccc12)C(NCCc1ccccc1Cl)c1ccccc1 (single isomer, unassigned) [3 Isomer 1]
11500 nM	CNC(=O)c1ccc2c(C(=O)C(NCCc3ccc(Cl)cc3Cl)c3ccccc3)c[nH]c2c1 (single isomer, unassigned) [151 Isomer 1]
53.1 nM	C[C@H](O)CNC(=O)c1ccc2c(C(=O)C(NCCc3ccc(C#N)cc3)c3ccccc3)c[nH]c2c1 (single isomer, unassigned) [168 Isomer 2]
755 nM	Cn1cnc(-c2ccc3c(C(=O)C(NCCc4ccc(Cl)cc4)c4ccccc4)c[nH]c3c2)c1 (single isomer, unassigned) [106 Isomer 1]
43200 nM	COc1ccc(CCNC(C(=O)c2c[nH]c3ccccc23)c2ccccc2)cc1 (single isomer, unassigned) [8 Isomer 1]
> 5000 nM	CNC(=O)CCc1ccc2c(C(=O)C(NCCc3ccc(F)cc3)c3ccccc3)c[nH]c2c1 (single isomer, unassigned) [158 Isomer 2]
182 nM	COCCn1cc(-c2ccc3c(C(=O)C(NCCc4ccc(C#N)cc4)c4ccccc4)c[nH]c3c2)cn1 (single isomer, unassigned) [96 Isomer 1]
> 5000 nM	CN1CCC(c2ccc3c(C(=O)C(NCCc4ccc(C(N)=O)cc4)c4ccccc4)c[nH]c3c2)CC1 (single isomer, unassigned) [178 Isomer 1]
1100 nM	O=C(c1c[nH]c2ccccc12)[C@@H](NCCc1ccc(-c2nn[nH]n2)cc1)c1ccccc1 (single isomer, unassigned) [185 Isomer 1]
134 nM	CC(CNC(C(=O)c1c[nH]c2cc(-c3cnn(C)c3)ccc12)c1ccccc1)c1ccc(Cl)cc1 (single isomer, unassigned) [91 Isomer 4]
17900 nM	O=C(O)c1ccc(CCNC(C(=O)c2c[nH]c3ccccc23)c2ccccc2)cc1 (single isomer, unassigned) [132 Isomer 2]
296 nM	C[C@@H](NC(=O)c1ccc2c(C(=O)C(NCCc3ccc(C#N)cc3)c3ccccc3)c[nH]c2c1)C(F)(F)F (single isomer, unassigned) [170 Isomer 1]
> 30000 nM	NS(=O)(=O)c1ccc(CCNC(C(=O)c2c[nH]c3cc(C(F)(F)F)ccc23)c2ccccc2)cc1 (single isomer, unassigned) [1 Isomer 2]
2660 nM	Cc1cnc(-c2ccc3c(C(=O)C(NCCc4ccc(Cl)cc4)c4ccccc4)c[nH]c3c2)[nH]1 (single isomer, unassigned) [109 Isomer 1]

IC50	SMILES
3540 nM	O=C(c1c[nH]c2ccccc12)[C@@H](NCCc1ccc(-c2nnc[nH]2)cc1)c1ccccc1 (single isomer, unassigned) [186 Isomer 2]
6390 nM	O=C(c1c[nH]c2ccccc12)C(NCCc1ccccc1Cl)c1ccccc1 (single isomer, unassigned) [3 Isomer 2]
1200 nM	N#Cc1ccc(CCNC(C(=O)c2c[nH]c3cc(C(=O)NCC(F)(F)F)ccc23)c2ccccc2)cc1 (single isomer, unassigned) [157 Isomer 1]
746 nM	CC(C)NC(=O)c1ccc2c(C(=O)C(NCCc3ccc(C#N)cc3)c3ccccc3)c[nH]c2c1 (single isomer, unassigned) [167 Isomer 2]
6440 nM	CC(CNC(C(=O)c1c[nH]c2cc(-c3cnn(C)c3)ccc12)c1ccccc1)c1ccc(Cl)cc1 (single isomer, unassigned) [91 Isomer 3]
2200 nM	CN1CCN(c2ccc3c(C(=O)C(NCCc4ccc(C#N)cc4)c4ccccc4)c[nH]c3n2)CC1 (single isomer, unassigned) [121 Isomer 1]
> 60000 nM	O=C(c1c[nH]c2ccccc12)C(NCCn1ccnc1)c1ccccc1 (single isomer, unassigned) [36 Isomer 2]
3730 nM	CC(CNC(C(=O)c1c[nH]c2cc(-c3cnn(C)c3)ccc12)c1ccccc1)c1ccc(Cl)cc1 (single isomer, unassigned) [91 Isomer 1]
672 nM	Cc1nc(C(=O)C(NCCc2ccc(C(N)=O)cc2)c2ccccc2)c2ccc(-c3cnn(C)c3)cn12 (single isomer, unassigned) [184 Isomer 1]
> 5000 nM	N#Cc1ccc(CCNC(C(=O)c2c[nH]c3cc(CC(=O)O)ccc23)c2ccccc2)cc1 (single isomer, unassigned) [160 Isomer 1]
> 5000 nM	CCNC(=O)c1ccc2c(C(=O)C(NCC(C)c3ccc(C#N)cc3)c3ccccc3)cnn2c1 (single isomer, unassigned) [69 Isomer 3]
> 60000 nM	O=C(c1c[nH]c2ccccc12)C(NCCN1CCCCC1=O)c1ccccc1 (single isomer, unassigned) [41 Isomer 1]
> 30000 nM	COCCNc1ccc(CCNC(C(=O)c2c[nH]c3ccccc23)c2ccccc2)cn1 (single isomer, unassigned) [54 Isomer 1]
2360 nM	CCN(CC)C(=O)c1ccc2c(C(=O)C(NCCc3ccc(C#N)cc3)c3ccccc3)c[nH]c2c1 (single isomer, unassigned) [165 Isomer 2]
917 nM	CS(=O)(=O)CCCNC(=O)c1ccc2c(C(=O)C(NCCc3ccc(C#N)cc3)c3ccccc3)c[nH]c2c1 (single isomer, unassigned) [175 Isomer 1]
816 nM	N#Cc1ccc(CCNC(C(=O)c2c[nH]c3cc(-c4cnn(CCO)c4)ccc23)c2ccccc2)cc1 (single isomer, unassigned) [95 Isomer 1]
> 30000 nM	O=C(c1c[nH]c2cc(OCc3ccccc3)ccc12)C(NCCc1ccc(F)cc1)c1ccccc1 (single isomer, unassigned) [61 Isomer 1]
7990 nM	Cn1cc(C(=O)C(NCCc2ccc(S(N)(=O)=O)cc2)c2ccccc2)c2ccccc21 (single isomer, unassigned) [17 Isomer 1]
1390 nM	CNC(=O)Cn1cc(-c2ccc3c(C(=O)C(NCCc4ccc(Cl)cc4)c4ccccc4)c[nH]c3c2)cn1 (single isomer, unassigned) [87 Isomer 1]
2030 nM	O=C(c1c[nH]c2cc(-c3cccnn3)ccc12)C(NCCc1ccc(Cl)cc1)c1ccccc1 (single isomer, unassigned) [112 Isomer 1]
> 30000 nM	CCNc1ccc(CCNC(C(=O)c2c[nH]c3ccccc23)c2ccccc2)cn1 (single isomer, unassigned) [53 Isomer 1]

SMILES	IC50
CC(Cc1ccc(Cl)cc1)NC(C(=O)c1c[nH]c2ccccc12)c1ccccc1 (single isomer, unassigned) [27 Isomer 4]	> 60000 nM

Same assay, conditions: read-out: P300 HAT SPA IC50; p300 HAT domain; average of at least 2 replicate titrations

SMILES	IC50
COCCn1cc(C(=O)C(NCCc2ccc(Cl)cc2)c2ccccc2)c2ccccc21 (single isomer, unassigned) [127 Isomer 2]	> 60000 nM

System: acetylation of chromatin at H3K18 (catalyzed by p300 and CBP) in HCT-116 cells
Assay: H3K18Ac MSD cellular assay
Format: cell-based
Settings: 2 hr treatment, average of at least 2 replicate titrations
Experimental: Select compounds were also evaluated in a H3K18Ac MSD cellular assay that measures the ability of compounds to inhibit the acetylation of chromatin at H3K18, a process catalyzed by p300 and CBP. In a typical experiment the p300 HAT inhibitory activity inside cells of the compounds described herein was determined in accordance with the following experimental method. 20 k HCT-116 cells per well are plated in 75 μL RPMI+10% FBS media the night before treatment. Compounds plated in DMSO at 4× final concentration are resuspended in 30 μL RPMI+10% FBS, then 25 μL is combined with corresponding wells containing cells. Treated cells are incubated for 2 hr at 37° C., then lysed in 500 μL final volume and frozen at −80° C. MSD plates (Meso Scale Discovery) are coated overnight at 4° C. with 60 μL 1:500α-total histone antibody (Millipore MAB3422) in PBS. Plates are then blocked with 5% BSA in TBST shaking at RT for 1 hr, washed, and 30 μL lysate added to each well for 2 hr shaking at RT. Plates are washed and 25 μL 1:216α-H3K18ac antibody (CST 9675) in PBS added, then incubated for 1 hr shaking at RT. Plates are washed again, then 25 μL 1:1000 Sulfo-Tag goat a-rabbit antibody (Meso Scale Discovery R32Ab-1) in PBS is added for 1 hr shaking at RT. Plates are washed once more, then 150 μL 1× Read Buffer (MSD #R92TD-3) is added to all wells and read on MSD SECTOR Imager 2400 using the conventional read setup.

EC50	SMILES
98.3 nM	N#Cc1ccc(CCNC(C(=O)c2c[nH]c3cc(C(=O)NC4COC4)ccc23)c2ccccc2)cc1 (single isomer, unassigned) [174 Isomer 2]
366 nM	Cn1cc(-c2ccc3c(C(=O)C(NCCc4ccc(C#N)cc4)c4ccccc4)cnn3c2)cn1 (single isomer, unassigned) [79 Isomer 1]
60 nM	Cn1cc(-c2ccc3c(C(=O)C(NCCc4ccc(C#N)cc4)c4ccccc4)cnn3c2)cn1 (single isomer, unassigned) [79 Isomer 2]

Same assay, conditions: Homo sapiens, HCT-116, 2 h, 2 hr treatment, average of at least 2 replicate titrations

EC50	SMILES
1270 nM	Cn1cnc(-c2ccc3c(C(=O)[C@@H](NCCc4ccc(C(N)=O)cc4)c4ccccc4)c[nH]c3c2)c1 (single isomer, unassigned) [177 Isomer 2]
97.5 nM	CN1CCN(c2ccc3c(C(=O)C(NCCc4ccc(C#N)cc4)c4ccccc4)c[nH]c3c2)CC1 (single isomer, unassigned) [122 Isomer 2]
37.5 nM	Cn1cc(-c2ccc3c(C(=O)C(NCCc4ccc(C#N)cc4)c4ccccc4)c[nH]c3c2)cn1 (single isomer, unassigned) [84 Isomer 2]
